Data set [1] concerns Botryotinia fuckeliana (Botrytis cinerea). Briefly: Botryotinia fuckeliana (Botrytis cinerea)/Liquid Culture (Gray Mould). The class given is cell-based. The note with it: liquid culture, compared to untreated control. The procedure: Conidia of the fungus from cryogenic storage are directly mixed into nutrient broth (Vogels broth). After placing a (DMSO) solution of test compound into a microtiter plate (96-well format), the nutrient broth containing the fungal spores is added.

Data set [2] deals with Blumeria graminis f. sp. tritici (Erysiphe graminis f. sp. tritici). Description: Blumeria graminis f. sp. tritici/Wheat/Leaf Disc Preventative (Powdery Mildew on Wheat). The class given is in vivo. The settings on record: foliar, wheat leaf disc preventative, compared to untreated control. An outline of the steps:
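Preventative leaf-disc test: percent disease control versus untreated leaf segments read 6-8 days post-application. Compound spray applied to wheat cv. Kanzler segments on agar one day before shaking infected plants over them; incubation at 20° C and 60% rh, 24 h darkness then 12 h light/12 h dark cycles.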

Data set [3] concerns Monographella nivalis (Microdochium nivale). Description: Monographella nivalis (Microdochium nivale)/Liquid Culture (Foot Rot Cereals). The class given is cell-based. The note with it: liquid culture, compared to untreated control. The gist of the method:
(§1)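 Liquid-culture format using potato dextrose broth inoculated directly with cryopreserved conidia, dosed with compound from a DMSO solution.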

Another data set has as its system Pythium ultimum. Briefly: Pythium ultimum/Liquid Culture (Seedling Damping Off). The class given is cell-based. The note with it: Globisporangium ultimum, liquid culture, compared to untreated control. The protocol: Mycelia fragments and oospores of a newly grown liquid culture of the fungus are directly mixed into nutrient broth (PDB potato dextrose broth). After placing a (DMSO) solution of test compound into a microtiter plate (96-well format), the nutrient broth containing the fungal mycelia/spore mixture is added.

For data set [4], the system named is Mycosphaerella graminicola (Septoria tritici). Briefly: Mycosphaerella graminicola (Septoria tritici)/Liquid Culture (Septoria Blotch). The class given is cell-based. The settings on record: Zymoseptoria tritici; 20 ppm; liquid culture; compared to untreated control. An outline of the steps: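 Results given as % disease control: test compound in DMSO was placed in wells first, then potato dextrose broth carrying cryostored fungal conidia was added.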

A further data set relates to Phakopsora pachyrhizi. Briefly: Phakopsora pachyrhizi/Soybean/Preventative (Soybean Rust). The class given is in vivo. The note with it: 288 h.
For data set [5], the system named is Magnaporthe grisea (Pyricularia oryzae). Briefly: whole plant or invertebrate. The class given is in vivo. The note with it: foliar, read-out: control of Magnaporthe grisea.
The nature of data set [6]: Photostability assay (Atlas Suntest). The class given is physicochemical. The note with it: Suntest 750 W/m^2, spotted on microscope slides. The gist of the method:
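Compound (2 μl of 1 g/L methanol stock) spotted on glass slides and irradiated at 750 W/m^2 in a Suntest. Slides were washed with H2O:MeCN:THF 50:40:10 and analysed by reverse-phase UPLC-PDA; peak area versus initial gave % parent remaining at 3 hours.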

A further data set deals with Phytophthora infestans. Briefly: whole plant or invertebrate. The class given is in vivo. The note with it: in Solanum lycopersicum, foliar, read-out: control of Phytophthora infestans.
In the next data set the test system is Plasmopara viticola. Description: whole plant or invertebrate. The class given is in vivo. The note with it: foliar, read-out: control of Plasmopara viticola.
The subject of data set [7] is Mycosphaerella arachidis (Cercospora arachidicola). Description: Mycosphaerella arachidis (Cercospora arachidicola)/Liquid Culture (Early Leaf Spot). The class given is cell-based. The settings on record: liquid culture, compared to untreated control. An outline of the steps:
as §1

Data set [8] concerns Phaeosphaeria nodorum (Septoria nodorum). Briefly: Phaeosphaeria nodorum (Septoria nodorum)/Wheat/Leaf Disc Preventative (Glume Blotch). The note with it: Parastagonospora nodorum, foliar, wheat leaf disc preventative, compared to untreated control. The class given is in vivo. An outline of the steps: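 Preventative test: compound spray first, then spore inoculation after 2 days on cv. Kanzler wheat leaf segments. Incubation in a climate cabinet at 20 °C and 75% rh under a 12 h light/12 h dark cycle. Activity rated as % control relative to untreated discs at 5–7 days post-application.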

Data set [9] relates to Glomerella lagenarium (Colletotrichum lagenarium). Briefly: Glomerella lagenarium (Colletotrichum lagenarium)/Liquid Culture (Anthracnose). The class given is cell-based. The settings on record: Colletotrichum orbiculare, liquid culture, compared to untreated control.
Data set [10] concerns Puccinia recondita f. sp. tritici. Briefly: Puccinia recondita f. sp. tritici/Wheat/Leaf Disc Curative (Brown Rust). The class given is in vivo. The note with it: foliar, wheat leaf disc curative, compared to untreated control. The gist of the method:
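Formulated compound, diluted in water, is applied to inoculated wheat cv. Kanzler leaf segments on agar one day post-inoculation (pre-incubation dark, 19° C, 75% rh). After 6-8 days at 19° C, 75% rh and 12 h/12 h light, activity is rated as percent disease control relative to untreated segments.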

The test system is the same in data set [11]. Description: Puccinia recondita f. sp. tritici/Wheat/Leaf Disc Preventative (Brown Rust). The class given is in vivo. The settings on record: foliar, 200 ppm, wheat leaf disc preventative, compared to untreated control, read-out: control of Puccinia recondita f. sp. tritici.
The next data set has as its system Alternaria solani. Description: Alternaria solani/Tomato/Leaf Disc (Early Blight). The class given is in vivo. The note with it: foliar, tomato leaf disc, compared to untreated control. The gist of the method: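 Protective leaf-disc test: compound sprayed onto tomato cv. Baby disks, spore inoculation following after 2 days. Disks kept at 80% rh, 12/12 h light/dark, 23° C. day and 21° C. night; activity read as percent disease control relative to untreated checks 5-7 days post-application.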

[12] abbreviates: foliar, soybean leaf disc preventative, compared to untreated control, read-out: control of Phakopsora pachyrhizi.

Read-outs that look alike come from different tables or passages of the source. Bounds are passed on as bounds.

As a reminder, the melting point is the temperature of the solid-liquid transition. For orientation: inhibition of growth means how much of the control response was suppressed. Read a low inhibition of growth as little suppression. The compound `CO/C=C(\Oc1cc(-n2ccc(C(C)C)n2)ccc1C)C(=O)OC` [Compound E-92, methyl (Z)-2-[5-(3-isopropylpyrazol-1-yl)-2-methyl-phenoxy]-3-methoxy-prop-2-enoate] had a melting point of 88 to 91 °C. Further, the inhibition of growth at 20 ppm in data set [1] was not below 80%. For the same compound, the pest or weed control at 200 ppm in [2] is not below 80%. Also, in [3], the inhibition of growth at 20 ppm is not below 80%. Also, in the data set with Pythium ultimum, the inhibition of growth at 20 ppm is not below 80%. The inhibition of growth at 20 ppm in [4] is not below 80%. In addition, the pest or weed control at 0.6 ppm in the data set on Phakopsora pachyrhizi (Phakopsora pachyrhizi (Soybean rust), 0.6 ppm) was 0%. The pest or weed control at 2 ppm in the data set with Phakopsora pachyrhizi (Phakopsora pachyrhizi (Soybean rust), 2 ppm) stood at 0%. For the same compound, the pest or weed control at 6 ppm with Phakopsora pachyrhizi (Phakopsora pachyrhizi (Soybean rust), 6 ppm) is 35%. The compound further had a pest or weed control at 20 ppm with Phakopsora pachyrhizi (Phakopsora pachyrhizi (Soybean rust), 20 ppm) of 90%. Moreover, the pest or weed control at 60 ppm with Phakopsora pachyrhizi (Phakopsora pachyrhizi (Soybean rust), 60 ppm) came to 100%. Besides, in the data set with Phakopsora pachyrhizi (Phakopsora pachyrhizi (Soybean rust), read-out: control (%)), the pest or weed control at 200 ppm was determined as 100%. The pest or weed control at 200 ppm in data set [5] is not below 80%. In data set [6], the “% Parent Remaining @ 3 hrs” value came to 33%. Besides, the pest or weed control at 200 ppm in the data set with Phytophthora infestans was not below 80%. Also, in the data set with Plasmopara viticola, the pest or weed control at 200 ppm was not below 80%. Besides, in data set [7], the inhibition of growth at 20 ppm is not below 80%. In [8], the pest or weed control at 200 ppm is not below 80%. In [9], this compound showed an inhibition of growth at 20 ppm not below 80%.

As to `CO/C=C(\Oc1cc(-n2ccc(C(C)C)n2)cc(F)c1C)C(=O)OC` [Compound E-7, methyl (Z)-2-[3-fluoro-5-(3-isopropylpyrazol-1-yl)-2-methyl-phenoxy]-3-methoxy-prop-2-enoate], the melting point fell in the range of 114 to 116 °C. This compound also gave a pest or weed control at 200 ppm in [10] not below 80%. For the same compound, in data set [2], the pest or weed control at 200 ppm is not below 80%. This compound also came in with an inhibition of growth at 20 ppm in data set [3] not below 80%. In the data set on Pythium ultimum, this compound registered an inhibition of growth at 20 ppm not below 80%. In addition, the inhibition of growth at 20 ppm in data set [4] is not below 80%. The pest or weed control at 200 ppm with Phakopsora pachyrhizi (setting [12]) was not below 50%. Besides, in data set [5], the pest or weed control at 200 ppm was not below 80%. For the same compound, the pest or weed control at 200 ppm in the data set with Phytophthora infestans is not below 80%. The pest or weed control at 200 ppm in the data set on Plasmopara viticola was not below 80%. For the same compound, the inhibition of growth at 20 ppm in [7] is not below 80%. Moreover, the pest or weed control at 200 ppm in [11] was not below 80%. The pest or weed control at 200 ppm in [8] is not below 80%. Besides, in data set [9], the inhibition of growth at 20 ppm is not below 80%.

Turning to `CO/C=C(\Oc1cc(-n2cc(C3CCC3)cn2)ccc1C)C(=O)OC` [Compound E-80, methyl (Z)-2-[5-(4-cyclobutylpyrazol-1-yl)-2-methyl-phenoxy]-3-methoxy-prop-2-enoate], the pest or weed control at 200 ppm is not below 80% in the data set with Alternaria solani; not below 80% in [10]; not below 80% in data set [2]; not below 50% with Phakopsora pachyrhizi (setting [12]); not below 80% in [5]; not below 80% in the data set on Phytophthora infestans. Besides, the pest or weed control at 200 ppm (with Plasmopara viticola; in [11]) was not below 80% throughout. In addition, the inhibition of growth at 20 ppm (in data set [1]; in data set [3]; in the data set on Pythium ultimum; in [4]; in data set [7]; in data set [9]) was not below 80% in each case.

Compound `CO/C=C(\Oc1cc(-n2ccc(C(C)C)n2)cc(OC)c1C)C(=O)OC` [Compound E-21, methyl (Z)-2-[5-(3-isopropylpyrazol-1-yl)-3-methoxy-2-methyl-phenoxy]-3-methoxy-prop-2-enoate] displayed a melting point of 90 to 92 °C. For the same compound, the pest or weed control at 200 ppm in the data set with Alternaria solani was not below 80%. Further, the pest or weed control at 200 ppm in data set [10] was not below 80%. The compound further registered an inhibition of growth at 20 ppm in [3] not below 80%. The compound further came in with an inhibition of growth at 20 ppm with Pythium ultimum not below 80%. Moreover, the inhibition of growth at 20 ppm in [4] was not below 80%. The pest or weed control at 200 ppm in the data set on Phytophthora infestans was not below 80%. For the same compound, in the data set with Plasmopara viticola, the pest or weed control at 200 ppm was not below 80%. Also, in data set [7], the inhibition of growth at 20 ppm is not below 80%. Also, the pest or weed control at 200 ppm in [11] is not below 80%. This compound also showed an inhibition of growth at 20 ppm in data set [9] not below 80%.

As for `CO/C=C(\Oc1cccc(-n2ncc(C3CC3)n2)c1)C(=O)OC` [Compound F-9, methyl (Z)-2-[3-(4-cyclopropyltriazol-2-yl)phenoxy]-3-methoxy-prop-2-enoate], the pest or weed control at 200 ppm (in data set [10]; in data set [2]; in the data set on Phytophthora infestans; in the data set on Plasmopara viticola; in data set [11]) was not below 80% throughout. The inhibition of growth at 20 ppm (in data set [3]; in the data set with Pythium ultimum; in data set [4]; in [7]; in data set [9]) was not below 80% in each case.

As for `CO/C=C(\Oc1cc(-n2ccc(C3CCCC3)n2)ccc1C)C(=O)OC` [Compound E-5, methyl (Z)-2-[5-(3-cyclopentylpyrazol-1-yl)-2-methyl-phenoxy]-3-methoxy-prop-2-enoate], the pest or weed control at 200 ppm (in data set [10]; in [5]; in the data set on Phytophthora infestans; in the data set on Plasmopara viticola; in [11]) was not below 80% throughout. For the same compound, the inhibition of growth at 20 ppm (in data set [1]; in data set [3]; in the data set on Pythium ultimum; in data set [4]; in data set [7]; in data set [9]) was not below 80% in each case.

For `CO/C=C(\Oc1cc(-n2ccc(C(C)(C)C)n2)ccc1C)C(=O)OC` [Compound E-103, methyl (Z)-2-[5-(3-tert-butylpyrazol-1-yl)-2-methyl-phenoxy]-3-methoxy-prop-2-enoate], the pest or weed control at 200 ppm in [10] was not below 80%; in data set [2], not below 80%; in the data set on Phakopsora pachyrhizi (setting [12]), not below 50%; in data set [5] it was not below 80%; with Phytophthora infestans, not below 80%; in the data set with Plasmopara viticola, not below 80%. The pest or weed control at 200 ppm in data set [11] and in data set [8] was not below 80% throughout. Besides, the inhibition of growth at 20 ppm (in data set [1]; in data set [3]; in the data set with Pythium ultimum; in data set [4]; in data set [7]; in [9]) was not below 80% throughout.

(Values after US12043600B2, “Microbiocidal compounds” (SYNGENTA CROP PROTECTION AG, priority 2018, dated 2024).)
